pIC50: −log10 of the molar value. Some results are limits rather than exact numbers.

Assay [1] relates to tumour necrosis factor-α (TNF-α). Nature of the assay: Mouse Tumour Necrosis Factor Test (Test B), mouse endotoxin shock model, serum TNF-α by ELISA. It is filed as in vivo, BALB/c mice. Particulars: Mus musculus; minimum effective oral dose giving significant reduction in serum TNF-α of ≥35%; dosed 2 h before LPS i.p.; ≤ = active at dose given but not tested at lower doses; read-out: MTNF:MED. The method in brief:
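BALB/c mice (n=4) dosed orally at 0.03–100 mg/kg in Tween 80/cellosize vehicle, then given E. coli LPS (100 µg) ip 2 h later. Serum collected 1 h after LPS and TNF-α quantified by sandwich ELISA at 450 nm against a standard curve. Groups compared with vehicle controls by ANOVA/t-test; active if reduction ≥35% at ≤100 mg/kg.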

The test system of assay [2] is lymphocyte proliferation (BALB/c responder and mitomycin C treated C57BL/6 stimulator spleen cells). Nature of the assay: Mixed Lymphocyte Reaction (Test A), one-way MLR, tritiated thymidine incorporation. The format is cell-based, mice. Particulars: Mus musculus; concentration causing 50% inhibition of lymphocyte proliferation, by linear interpolation; ≤ = active at this concentration but not tested at lower doses. Here is the method:
A mixed lymphocyte reaction (MLR) occurs when lymphocytes from two genetically dissimilar individuals, or inbred strains of mice are cultured together. An MLR results in the activation and proliferation of lymphocytes, which is measured by the incorporation of radiolabelled thymidine into the cellular DNA synthesised during cell division. A 'one-way' MLR is used to determine the immunosuppressive activity of test compounds in vitro. In this reaction one population of spleen cells serves as the stimulator cells and is treated with mitomycin C to prevent cell division. Spleen cells from a second allogeneic population (responder cells) are untreated and when mixed with the stimulator cells are able to undergo division which is measured. The degree of proliferation is measured in the presence and absence of test compound to assess the immunosuppressive activity of the compound.
The techniques for carrying out lymphocyte proliferation assays including MLRs are well known, eg Bradley, pages 156-166, in Mishell and Shiigi, Eds. Selected Methods in Cellular Immunology (Freeman, San Francisco, 1980); and Battisto et al, methods in Enzymology 1987; 150: 83-91. Various slight modifications of these techniques are in use and that used herein is described in Gibb, Webber and Bowen, J Immunological Methods 1985; 81: 107-113.
Cell suspensions obtained from the spleens of female BALB/c and C57BL/6 strain mice of between 6 and 9 weeks of age were used as sources of responder and stimulator cells respectively. The mice were killed using a rising concentration of CO2 and the spleens removed aseptically and teased using a scalpel and forceps to produce a single cell suspension in Hanks balanced salt solution (HBSS). The suspensions were filtered through cell strainers (Falcon), sedimented by centrifugation and resuspended in Tris-buffered ammonium chloride pH 7.2 (medium D) to lyse the erythrocytes. The cells were sedimented again and washed twice in HBSS before resuspending in complete RPMI 1640 tissue culture medium (medium E). The C57BL/6 cells were resuspended to 9 mls per spleen and a solution of mitomycin C at 400 µg/ml in medium E added to give a final concentration of 40 µg/ml. After incubation of the C57BL/6 cells at 37°C for 30 minutes in an atmosphere of 5% CO2 and 95% air, the cells were sedimented and washed 3 times in medium E. Both cell suspensions were diluted in medium E to 5 x 10^6 cells/ml. 100µl of each of the responder and stimulator cell suspensions were aliquoted into the wells of 96 well flat bottom microtitre plates containing 50 µl of test compound at an appropriate dilution (initially 50 µM diluted in medium E from a stock solution at 100 mM in dimethyl sulphoxide) giving a final test compound concentration of 10 µM (final dilution). Compounds active at this concentration were tested at further final dilution of 1 µM, 0.1 µM and 0.01 µM and 0.001 µM to determine the concentration of test compound which causes 50% inhibition of the immune response (IC50). After four days of culture at 37°C in a humidified atmosphere of 5% CO2 and 95% air, 1 µCi of tritiated thymidine in 20 µl of medium E was added to each well and the plates incubated for a further 24 hours. Cells were then harvested onto Inotech G7 glass fibre filter mats using an Inotech cell harvester. The filters were transferred to vials to which 2 ml of Packard Emulsifier-Safe scintillation fluid was added and the radioactivity from the incorporated thymidine was counted in a Packard liquid scintillation counter. The counts per minute (CPM) reflect the degree of lymphocyte proliferation. The data were analysed to determine the percentage inhibition of lymphocyte proliferation by the test compound. […]

Take `c1ccc(OCCN2CCC(CCn3ccnc3)CC2)cc1` [Example 87, 4-[2-(Imidazol-1-yl)ethyl]-1-(2-phenoxyethyl)piperidine]: the minimal effective dose in assay [1] is at most 100 mg/kg. Further, in assay [2], the negative logarithm of the IC50 (pIC50) is 5.10.

Consider `Cc1nc2ccccc2n1CCC1CCN(CCCc2ccccc2)CC1` [Example 112, 2-Methyl-1-{2-[1-(3-phenylpropyl)piperidin-4-yl]ethyl}benzimidazole], for which the minimal effective dose in assay [1] stood at 100 mg/kg. The molecule also had a pIC50 in assay [2] of 5.52.

In the case of `CC(c1ccc(Cl)cc1)N1CCC(CCn2ccnc2)CC1` (centres unmarked) [Example 93, 1-[1-(4-chlorophenyl)ethyl]-4-[2-(imidazol-1-yl)-ethyl]piperidine], the minimal effective dose in assay [1] is 30 mg/kg. The molecule also showed a pIC50 in assay [2] of 5.96.

In the case of `Cc1ncn(CCC2CCN(CCCc3ccccc3)CC2)c1C` [Example 116, 4-[2-(4,5-Dimethylimidazol-1-yl)ethyl]-1-(3-phenylpropyl)piperidine], in assay [1], the minimal effective dose was 30 mg/kg. The negative-log IC50 (pIC50) in assay [2] was 5.70.

With `c1ccc(CCN2CCC(CCn3ccnc3)CC2)cc1` [Example 128, 4-[2-(Imidazol-1-yl)ethyl]-1-phenethylpiperidine], the minimal effective dose in assay [1] was at most 30 mg/kg. The molecule further gave a negative logarithm of the IC50 (pIC50) in assay [2] of 5.70.

For the molecule `c1ccc(CCCCN2CCC(CCn3ccnc3)CC2)cc1` [Example 129, 4-[2-(Imidazol-1-yl)ethyl]-1-(4-phenylbutyl)piperidine], the minimal effective dose in assay [1] was determined as 30 mg/kg. Besides, the negative-log IC50 (pIC50) in assay [2] was 5.68.

`c1ccc(CCCN2CCC(Cn3ccnc3)CC2)cc1` [Example 102, 4-Imidazol-1-ylmethyl-1-(3-phenylpropyl)piperidine]: in assay [1], the minimal effective dose is at most 100 mg/kg. Besides, the pIC50 in assay [2] is 5.28.

`CSc1ccc(CCCN2CCC(CCn3ccnc3)CC2)cc1` [Example 127, 4-[2-(Imidazol-1-yl)ethyl]-1-[3-(4-methylthiophenyl)propyl]piperidine]: the minimal effective dose in assay [1] is 30 mg/kg. The pIC50 in assay [2] was 5.72.

For the molecule `Cc1nccn1CCC1CCN(CCCc2ccccc2)CC1` [Example 117, 4-[2-(2-Methylimidazol-1-yl)ethyl]-1-(3-phenylpropyl)piperidine], in assay [1], the minimal effective dose was 100 mg/kg. The molecule further showed a pIC50 in assay [2] of 6.70.

For `Cl.Cl.c1ccc(CCCN2CCC(CCn3ccnc3)CC2)cc1` [Example 98, 4-[2-(imidazol-1-yl)ethyl]-1-(3-phenylpropyl)piperidine dihydrochloride], in assay [1], the minimal effective dose came out at 30 mg/kg. The negative-log IC50 (pIC50) in assay [2] is 6.52.

Take `CC(Cn1ccnc1)C1CCN(CCCc2ccccc2)CC1` (centres unmarked) [Example 113, 4-[2-(Imidazol-1-yl)-1-methylethyl]-1-(3-phenylpropyl)piperidine]: in assay [1], the minimal effective dose came to 10 mg/kg. Besides, the pIC50 in assay [2] was 6.52.

For the molecule `C(=Cc1ccccc1)CN1CCC(CCn2ccnc2)CC1` [Example 90, 1-Cinnamyl-4-[2-(imidazol-1-yl)ethyl]-piperidine], in assay [1], the minimal effective dose was at most 30 mg/kg. Also, the pIC50 in assay [2] is 5.66.

For the molecule `c1ccc(CCCN2CCC(CCn3cnc4ccccc43)CC2)cc1` [Example 114, 1-{2-[1-(3-Phenylpropyl)piperidin-4-yl]-ethyl}benzimidazole], the minimal effective dose in assay [1] came to 30 mg/kg. Also, the negative logarithm of the IC50 (pIC50) in assay [2] is 5.38.

Turning to `O=C(CN1CCC(CCn2ccnc2)CC1)Nc1ccc(C(F)(F)F)cc1` [Example 91, 4-[2-(Imidazol-1-yl)ethyl]piperidino-4'-trifluoromethylacetanilide], the minimal effective dose in assay [1] was found to be 30 mg/kg. Also, in assay [2], the pIC50 was 7.00.

In the case of `Cc1nc(Cl)c(Cl)n1CCC1CCN(CCCc2ccccc2)CC1` [Example 115, 4-[2-(4,5-Dichloro-2-methylimidazol-1-yl)ethyl]-1-(3-phenylpropyl)piperidine], in assay [1], the minimal effective dose is 100 mg/kg. The pIC50 in assay [2] was 5.92.

As for `c1ccc(CCCN2CCC(CCn3ccnc3-c3ccccc3)CC2)cc1` [Example 109, 4-[2-(2-Phenylimidazol-1-yl)ethyl]-1-(3-phenylpropyl)piperidine], in assay [1], the minimal effective dose worked out at 100 mg/kg. The molecule also had a negative-log IC50 (pIC50) in assay [2] of 5.44.

For `Cc1ccc(CCCN2CCC(CCn3ccnc3)CC2)cc1` [Example 122, 4-[2-(Imidazol-1-yl)ethyl]-1-[3-(4-methylphenyl)propyl]piperidine], in assay [1], the minimal effective dose is at most 30 mg/kg. The molecule further had a pIC50 in assay [2] of 5.55.

On to `Clc1ccc(CCCN2CCC(CCn3ccnc3)CC2)cc1` [Example 123, 1-[3-(4-Chlorophenyl)propyl]-4-[2-(imidazol-1-yl)ethyl]piperidine], for which the minimal effective dose in assay [1] is at most 30 mg/kg. Besides, the pIC50 in assay [2] is 6.15.

On to `CC1CN(CCCc2ccccc2)CCC1CCn1ccnc1` (centres unmarked) [Example 103, 4-[2-(Imidazol-1-yl)ethyl]-3-methyl-1-(3-phenylpropyl)piperidine], for which the minimal effective dose in assay [1] is at most 30 mg/kg. In assay [2], this molecule had a pIC50 of 5.72.

In general, pIC50 refers to the negative decadic logarithm of the IC50, by convention in mol/L. A higher pIC50 goes with a low IC50.

For the origin of these results see EP0705258B1, “AZOLYL-CYCLIC AMINE DERIVATIVES WITH IMMUNOMODULATORY ACTIVITY” (Knoll AG, priority 1993, dated 1995).
